In ChEMBL document CHEMBL1146307, “Exploring the active site of phenylethanolamine N-methyltransferase with 1,2,3,4-tetrahydrobenz[h]isoquinoline inhibitors” (Bioorg Med Chem, 2007):

target: T1, Adrenergic receptor alpha-2 (Rattus norvegicus, UniProt P22086+P19328+P22909); test: Displacement of [3H]clonidine from adrenergic alpha2 receptor in Sprague-Dawley rat cortex membrane; format: cell membranes
T1 sequence (P22086 whole entry): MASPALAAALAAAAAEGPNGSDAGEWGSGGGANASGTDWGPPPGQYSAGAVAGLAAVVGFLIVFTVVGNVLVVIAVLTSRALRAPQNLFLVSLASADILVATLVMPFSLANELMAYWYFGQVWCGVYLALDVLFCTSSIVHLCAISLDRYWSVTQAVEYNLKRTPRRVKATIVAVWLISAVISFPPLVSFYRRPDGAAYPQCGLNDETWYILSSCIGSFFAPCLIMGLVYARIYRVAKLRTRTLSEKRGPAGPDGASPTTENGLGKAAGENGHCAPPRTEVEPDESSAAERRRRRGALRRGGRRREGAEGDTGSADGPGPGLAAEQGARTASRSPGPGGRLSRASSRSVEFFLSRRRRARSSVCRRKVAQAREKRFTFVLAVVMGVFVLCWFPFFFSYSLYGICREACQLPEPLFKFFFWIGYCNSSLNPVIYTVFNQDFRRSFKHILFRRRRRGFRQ
T1 sequence (P19328 whole entry): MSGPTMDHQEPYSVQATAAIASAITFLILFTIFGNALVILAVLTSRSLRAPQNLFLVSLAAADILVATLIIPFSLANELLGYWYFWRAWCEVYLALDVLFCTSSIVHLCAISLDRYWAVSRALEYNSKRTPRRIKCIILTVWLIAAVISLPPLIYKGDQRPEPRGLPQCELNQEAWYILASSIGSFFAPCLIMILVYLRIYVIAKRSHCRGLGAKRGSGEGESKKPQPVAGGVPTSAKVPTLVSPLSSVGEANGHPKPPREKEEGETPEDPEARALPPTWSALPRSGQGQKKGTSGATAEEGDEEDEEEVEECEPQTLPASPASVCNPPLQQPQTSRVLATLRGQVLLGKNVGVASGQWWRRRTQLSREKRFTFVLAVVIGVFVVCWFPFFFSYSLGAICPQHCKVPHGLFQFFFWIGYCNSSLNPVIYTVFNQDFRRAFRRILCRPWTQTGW
T1 sequence (P22909 whole entry): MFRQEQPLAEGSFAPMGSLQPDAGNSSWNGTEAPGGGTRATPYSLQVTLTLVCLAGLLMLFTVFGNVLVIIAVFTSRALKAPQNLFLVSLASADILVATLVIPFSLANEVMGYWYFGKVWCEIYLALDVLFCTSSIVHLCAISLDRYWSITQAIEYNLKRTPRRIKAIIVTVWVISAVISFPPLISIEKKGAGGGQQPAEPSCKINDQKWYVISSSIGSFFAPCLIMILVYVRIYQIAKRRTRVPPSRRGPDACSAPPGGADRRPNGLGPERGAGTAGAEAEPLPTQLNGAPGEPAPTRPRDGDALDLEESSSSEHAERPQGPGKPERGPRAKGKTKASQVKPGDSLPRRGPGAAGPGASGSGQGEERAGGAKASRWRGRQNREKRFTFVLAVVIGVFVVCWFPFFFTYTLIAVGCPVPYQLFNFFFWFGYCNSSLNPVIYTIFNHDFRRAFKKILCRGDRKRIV

Ki [µM] | Compound
0.59 | N#Cc1cccc2c3c(ccc12)CCNC3
0.011 | Oc1cccc2c3c(ccc12)CCNC3
0.16 | COc1cccc2c3c(ccc12)CCNC3
0.41 | O=[N+]([O-])c1cccc2c3c(ccc12)CCNC3
0.1 | Brc1cccc2c3c(ccc12)CCNC3
0.016 | c1ccc2c3c(ccc2c1)CCNC3
2.9 | NS(=O)(=O)c1cccc2c3c(ccc12)CCNC3

tested on: not listed separately; test: Selectivity for human PNMT over Sprague-Dawley rat adrenergic alpha-2 receptor

Compound | Ratio Ki
c1ccc2c(c1)CCNC2 | 0.06
